Measured values published in patent US10870647B2, “Imidazopyridine derivative, method for preparing same, and pharmaceutical composition containing same as active ingredient for preventing or treating cancer” (DAEGU-GYEONGBUK MEDICAL INNOVATION FOUNDATION, priority 2016, dated 2020).

Tests used:
Assay in all cases: Kinase selectivity, scanMAX Kinase assay panel (DiscoverX), % control at 1 uM
Type in all cases: binding
[1] = target: T1, scanMAX Kinase assay panel (Homo sapiens, UniProt O00238); conditions: BMPR1B; 1 uM; read-out: Percent Control (%)
T1 construct: purchased DiscoverX
T1 sequence (O00238 14-502): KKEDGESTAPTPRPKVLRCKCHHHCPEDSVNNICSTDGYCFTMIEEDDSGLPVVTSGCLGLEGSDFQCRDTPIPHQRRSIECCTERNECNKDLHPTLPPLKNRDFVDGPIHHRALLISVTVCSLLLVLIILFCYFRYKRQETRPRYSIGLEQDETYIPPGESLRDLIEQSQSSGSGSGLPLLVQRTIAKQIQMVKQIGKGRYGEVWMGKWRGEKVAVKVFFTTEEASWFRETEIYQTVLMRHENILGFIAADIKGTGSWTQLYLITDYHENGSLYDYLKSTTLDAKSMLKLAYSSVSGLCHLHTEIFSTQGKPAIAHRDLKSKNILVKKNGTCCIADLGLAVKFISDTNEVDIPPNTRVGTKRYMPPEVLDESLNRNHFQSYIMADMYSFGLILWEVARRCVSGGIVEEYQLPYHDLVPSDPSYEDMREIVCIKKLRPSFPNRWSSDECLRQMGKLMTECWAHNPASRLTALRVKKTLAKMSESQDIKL
Method in brief: (§1)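 Binding across the scanMAX kinase panel was tested at 1 uM compound. % control = (compound − positive control)/(negative control − positive control) × 100; below 35 counted as active.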

[2] = target: T2, scanMAX Kinase assay panel (Homo sapiens, UniProt O94804); conditions: LOK; 1 uM; read-out: Percent Control (%)
T2 construct: purchased DiscoverX
T2 sequence (O94804 whole entry): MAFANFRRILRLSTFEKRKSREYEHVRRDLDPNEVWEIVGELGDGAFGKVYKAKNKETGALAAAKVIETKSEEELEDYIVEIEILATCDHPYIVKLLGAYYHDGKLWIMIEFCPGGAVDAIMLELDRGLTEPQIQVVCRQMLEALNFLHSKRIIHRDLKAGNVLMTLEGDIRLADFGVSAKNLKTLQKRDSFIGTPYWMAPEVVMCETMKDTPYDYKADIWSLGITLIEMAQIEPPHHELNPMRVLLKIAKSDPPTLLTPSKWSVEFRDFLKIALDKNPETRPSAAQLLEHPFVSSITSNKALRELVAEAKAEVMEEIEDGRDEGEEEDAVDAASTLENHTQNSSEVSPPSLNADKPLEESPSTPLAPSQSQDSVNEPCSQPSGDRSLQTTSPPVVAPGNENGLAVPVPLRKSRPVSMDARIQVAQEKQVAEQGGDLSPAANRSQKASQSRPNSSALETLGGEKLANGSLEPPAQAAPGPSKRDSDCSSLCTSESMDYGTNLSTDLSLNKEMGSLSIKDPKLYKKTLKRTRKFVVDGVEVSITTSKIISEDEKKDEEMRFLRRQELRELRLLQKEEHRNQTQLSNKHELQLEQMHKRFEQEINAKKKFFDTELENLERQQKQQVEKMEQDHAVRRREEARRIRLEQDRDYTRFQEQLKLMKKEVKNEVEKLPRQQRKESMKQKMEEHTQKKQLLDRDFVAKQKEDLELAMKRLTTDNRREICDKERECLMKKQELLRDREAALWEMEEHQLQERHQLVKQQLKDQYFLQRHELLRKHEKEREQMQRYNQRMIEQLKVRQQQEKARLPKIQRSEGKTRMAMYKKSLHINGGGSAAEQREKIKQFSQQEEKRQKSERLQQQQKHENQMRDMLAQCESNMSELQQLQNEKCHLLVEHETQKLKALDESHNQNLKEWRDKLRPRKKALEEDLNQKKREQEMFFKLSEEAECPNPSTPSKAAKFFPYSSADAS
Method in brief: as §1

[3] = target: T3, scanMAX Kinase assay panel (Homo sapiens, UniProt P42336, H1047Y); conditions: PIK3CA (H1047Y); 1 uM; read-out: Percent Control (%)
T3 construct: purchased DiscoverX
T3 sequence (P42336 whole entry H1047Y): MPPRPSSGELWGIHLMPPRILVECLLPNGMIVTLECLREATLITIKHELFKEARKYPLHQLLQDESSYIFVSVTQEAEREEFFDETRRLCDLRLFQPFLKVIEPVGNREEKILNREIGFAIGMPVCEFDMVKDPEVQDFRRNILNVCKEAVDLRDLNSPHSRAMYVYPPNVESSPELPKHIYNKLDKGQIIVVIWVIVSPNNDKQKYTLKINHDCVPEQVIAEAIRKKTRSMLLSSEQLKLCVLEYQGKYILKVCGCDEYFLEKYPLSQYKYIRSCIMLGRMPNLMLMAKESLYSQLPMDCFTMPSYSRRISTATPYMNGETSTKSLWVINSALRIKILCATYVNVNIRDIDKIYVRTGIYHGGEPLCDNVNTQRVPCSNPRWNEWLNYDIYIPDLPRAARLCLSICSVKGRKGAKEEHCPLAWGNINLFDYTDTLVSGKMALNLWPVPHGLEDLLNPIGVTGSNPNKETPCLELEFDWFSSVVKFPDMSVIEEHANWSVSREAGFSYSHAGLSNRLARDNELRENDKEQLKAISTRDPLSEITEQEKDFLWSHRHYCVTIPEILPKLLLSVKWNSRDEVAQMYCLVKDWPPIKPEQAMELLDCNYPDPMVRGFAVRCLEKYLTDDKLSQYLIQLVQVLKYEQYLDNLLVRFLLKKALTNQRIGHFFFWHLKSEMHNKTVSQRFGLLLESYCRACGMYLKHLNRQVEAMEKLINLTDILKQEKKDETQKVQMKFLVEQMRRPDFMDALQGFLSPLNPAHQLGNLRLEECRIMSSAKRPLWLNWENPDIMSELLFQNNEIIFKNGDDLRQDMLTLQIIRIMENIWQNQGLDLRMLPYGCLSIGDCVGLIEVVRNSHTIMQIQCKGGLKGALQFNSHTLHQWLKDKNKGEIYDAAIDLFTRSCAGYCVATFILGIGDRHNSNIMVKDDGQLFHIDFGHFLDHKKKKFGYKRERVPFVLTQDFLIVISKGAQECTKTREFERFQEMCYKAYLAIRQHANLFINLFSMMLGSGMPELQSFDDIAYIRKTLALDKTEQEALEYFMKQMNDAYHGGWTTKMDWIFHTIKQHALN
Method in brief: as §1

[4] = target: T4, scanMAX Kinase assay panel (Homo sapiens, UniProt P46734); conditions: MEK3; 1 uM; read-out: Percent Control (%)
T4 construct: purchased DiscoverX
T4 sequence (P46734 1-347): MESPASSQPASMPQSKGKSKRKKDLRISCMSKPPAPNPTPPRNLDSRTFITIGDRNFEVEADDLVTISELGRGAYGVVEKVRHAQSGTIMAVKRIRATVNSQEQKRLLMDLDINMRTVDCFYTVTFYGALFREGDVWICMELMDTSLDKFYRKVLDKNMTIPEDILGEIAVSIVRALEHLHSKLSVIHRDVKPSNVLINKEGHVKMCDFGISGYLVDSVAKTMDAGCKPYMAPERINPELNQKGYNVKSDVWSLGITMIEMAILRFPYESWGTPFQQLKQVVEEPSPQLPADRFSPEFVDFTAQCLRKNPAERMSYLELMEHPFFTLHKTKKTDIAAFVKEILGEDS
Method in brief: as §1

[5] = target: T5, scanMAX Kinase assay panel (Homo sapiens, UniProt P48730); conditions: CSNK1D; 1 uM; read-out: Percent Control (%)
T5 construct: purchased DiscoverX
T5 sequence (P48730 whole entry): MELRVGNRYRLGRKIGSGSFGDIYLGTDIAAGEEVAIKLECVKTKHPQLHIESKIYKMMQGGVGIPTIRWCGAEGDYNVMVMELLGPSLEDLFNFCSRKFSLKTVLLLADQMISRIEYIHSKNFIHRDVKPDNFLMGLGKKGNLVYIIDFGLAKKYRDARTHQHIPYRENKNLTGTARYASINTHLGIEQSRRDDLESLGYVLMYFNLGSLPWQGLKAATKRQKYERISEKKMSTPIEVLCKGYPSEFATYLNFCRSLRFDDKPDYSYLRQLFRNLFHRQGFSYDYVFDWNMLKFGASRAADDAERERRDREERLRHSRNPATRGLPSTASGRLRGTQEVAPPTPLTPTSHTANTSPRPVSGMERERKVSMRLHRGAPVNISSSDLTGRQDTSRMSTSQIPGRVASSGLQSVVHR
Method in brief: as §1

[6] = target: T6, scanMAX Kinase assay panel (Homo sapiens, UniProt Q8WXR4); conditions: MYO3B; 1 uM; read-out: Percent Control (%)
T6 construct: purchased DiscoverX
T6 sequence (Q8WXR4 1-1341): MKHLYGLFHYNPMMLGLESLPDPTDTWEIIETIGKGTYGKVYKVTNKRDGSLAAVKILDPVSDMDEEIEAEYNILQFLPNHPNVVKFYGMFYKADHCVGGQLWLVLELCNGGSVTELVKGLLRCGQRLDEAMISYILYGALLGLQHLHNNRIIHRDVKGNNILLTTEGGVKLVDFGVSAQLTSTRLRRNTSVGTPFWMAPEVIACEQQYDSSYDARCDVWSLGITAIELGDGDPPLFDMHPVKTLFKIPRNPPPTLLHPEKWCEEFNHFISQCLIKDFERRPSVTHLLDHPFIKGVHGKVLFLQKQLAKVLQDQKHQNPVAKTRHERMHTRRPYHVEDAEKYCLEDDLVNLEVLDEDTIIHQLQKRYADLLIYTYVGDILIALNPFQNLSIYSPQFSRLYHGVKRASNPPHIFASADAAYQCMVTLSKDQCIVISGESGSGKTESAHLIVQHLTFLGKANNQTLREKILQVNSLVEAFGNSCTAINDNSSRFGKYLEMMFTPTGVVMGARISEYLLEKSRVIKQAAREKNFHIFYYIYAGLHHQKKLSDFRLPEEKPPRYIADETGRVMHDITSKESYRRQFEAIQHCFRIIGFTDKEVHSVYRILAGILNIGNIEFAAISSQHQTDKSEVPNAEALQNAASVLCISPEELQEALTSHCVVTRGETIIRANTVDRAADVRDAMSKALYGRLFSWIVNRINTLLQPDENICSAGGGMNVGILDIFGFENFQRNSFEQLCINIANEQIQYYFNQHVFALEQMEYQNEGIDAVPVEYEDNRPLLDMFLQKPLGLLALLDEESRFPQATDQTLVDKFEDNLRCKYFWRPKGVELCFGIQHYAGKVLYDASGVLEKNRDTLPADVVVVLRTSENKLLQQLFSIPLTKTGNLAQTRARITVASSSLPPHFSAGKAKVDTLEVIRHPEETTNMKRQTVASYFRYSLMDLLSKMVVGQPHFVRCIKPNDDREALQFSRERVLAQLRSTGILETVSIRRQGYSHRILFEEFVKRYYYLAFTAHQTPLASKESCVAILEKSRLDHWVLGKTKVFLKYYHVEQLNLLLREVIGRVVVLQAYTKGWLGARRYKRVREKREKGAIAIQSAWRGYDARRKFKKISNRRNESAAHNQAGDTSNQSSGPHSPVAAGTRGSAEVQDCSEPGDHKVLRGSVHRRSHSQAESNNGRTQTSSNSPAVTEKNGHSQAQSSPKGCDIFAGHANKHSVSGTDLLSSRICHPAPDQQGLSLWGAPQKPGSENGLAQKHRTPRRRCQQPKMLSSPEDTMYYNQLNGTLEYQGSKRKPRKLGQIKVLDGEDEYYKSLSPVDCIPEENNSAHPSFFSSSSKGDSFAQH
Method in brief: as §1

[7] = target: T7, scanMAX Kinase assay panel (Homo sapiens, UniProt Q96Q40); conditions: PFTAIRE2; 1 uM; read-out: Percent Control (%)
T7 construct: purchased DiscoverX
T7 sequence (Q96Q40 whole entry): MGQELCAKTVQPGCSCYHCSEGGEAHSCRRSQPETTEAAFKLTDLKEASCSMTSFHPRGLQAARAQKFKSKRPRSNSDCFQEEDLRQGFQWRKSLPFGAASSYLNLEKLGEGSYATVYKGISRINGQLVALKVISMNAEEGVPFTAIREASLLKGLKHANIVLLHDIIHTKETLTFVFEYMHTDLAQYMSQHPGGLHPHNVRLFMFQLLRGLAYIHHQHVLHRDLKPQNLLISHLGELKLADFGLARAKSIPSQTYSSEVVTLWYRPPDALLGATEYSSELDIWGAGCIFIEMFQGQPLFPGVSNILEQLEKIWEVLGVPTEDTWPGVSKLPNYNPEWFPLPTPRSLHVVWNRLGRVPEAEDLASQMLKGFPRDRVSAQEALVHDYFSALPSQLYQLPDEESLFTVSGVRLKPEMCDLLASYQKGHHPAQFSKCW
Method in brief: as §1

[8] = target: T8, scanMAX Kinase assay panel (Homo sapiens, UniProt Q9C098); conditions: DCAMKL3; 1 uM; read-out: Percent Control (%)
T8 construct: purchased DiscoverX
T8 sequence (Q9C098 whole entry): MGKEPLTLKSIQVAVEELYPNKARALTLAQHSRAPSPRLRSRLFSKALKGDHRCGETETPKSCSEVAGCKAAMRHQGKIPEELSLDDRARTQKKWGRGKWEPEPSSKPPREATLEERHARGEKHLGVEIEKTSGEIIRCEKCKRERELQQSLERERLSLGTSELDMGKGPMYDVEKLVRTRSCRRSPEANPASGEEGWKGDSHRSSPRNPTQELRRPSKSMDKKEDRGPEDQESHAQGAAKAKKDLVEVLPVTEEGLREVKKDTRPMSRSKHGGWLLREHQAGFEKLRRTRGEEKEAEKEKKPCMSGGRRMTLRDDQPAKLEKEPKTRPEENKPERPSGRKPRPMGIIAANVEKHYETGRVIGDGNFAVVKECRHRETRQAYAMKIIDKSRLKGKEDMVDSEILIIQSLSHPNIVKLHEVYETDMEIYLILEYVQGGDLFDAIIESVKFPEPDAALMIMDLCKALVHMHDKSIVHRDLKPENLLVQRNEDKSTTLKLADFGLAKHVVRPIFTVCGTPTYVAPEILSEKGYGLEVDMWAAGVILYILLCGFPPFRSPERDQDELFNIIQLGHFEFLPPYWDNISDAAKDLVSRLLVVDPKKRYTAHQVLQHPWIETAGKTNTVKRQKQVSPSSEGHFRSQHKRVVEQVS
Method in brief: as §1

[9] = target: T9, scanMAX Kinase assay panel (Homo sapiens, UniProt Q9HBY8); conditions: SGK2; 1 uM; read-out: Percent Control (%)
T9 construct: purchased DiscoverX
T9 sequence (Q9HBY8 1-367): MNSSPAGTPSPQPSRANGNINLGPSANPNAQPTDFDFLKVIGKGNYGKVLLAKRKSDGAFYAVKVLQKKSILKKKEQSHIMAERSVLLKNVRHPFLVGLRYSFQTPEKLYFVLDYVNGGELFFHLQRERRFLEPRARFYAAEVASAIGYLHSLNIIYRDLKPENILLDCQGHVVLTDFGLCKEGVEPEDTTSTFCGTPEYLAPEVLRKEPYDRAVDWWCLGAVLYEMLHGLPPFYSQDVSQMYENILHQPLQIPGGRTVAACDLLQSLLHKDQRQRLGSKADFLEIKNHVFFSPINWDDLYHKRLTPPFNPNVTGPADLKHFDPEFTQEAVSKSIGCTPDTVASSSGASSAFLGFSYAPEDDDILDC
Method in brief: as §1

## Cc1ccc(C(=O)Nc2ccc(CN3CCN(C)CC3)c(C(F)(F)F)c2)cc1C#Cc1cnc2c(Nc3cnn(C)c3)cccn12 [Example 1, 4-methyl-3-((8-((1-methyl-1H-pyrazol-4-yl)amino)imidazo[1,2-a]pyridin-3-yl)ethynyl)-N-(4-((4-methylpiperazin-1-yl)methyl)-3-(trifluoromethyl)phenyl)benzamide]
[1]
  remaining binding at 1 µM: 99%
[2]
  remaining binding at 1 µM: 0%
[3]
  remaining binding at 1 µM: 74%
[4]
  remaining binding at 1 µM: 81%
[5]
  remaining binding at 1 µM: 91%
[6]
  remaining binding at 1 µM: 35%
[7]
  remaining binding at 1 µM: 6%
[8]
  remaining binding at 1 µM: 98%
[9]
  remaining binding at 1 µM: 84%

## Cc1cn(-c2cc(NC(=O)c3ccc(C)c(C#Cc4cnc5c(Nc6cnn(C)c6)cccn45)c3)cc(C(F)(F)F)c2)cn1 [Example 12, 4-methyl-N-(3-(4-methyl-1H-imidazol-1-yl)-5-(trifluoromethyl)phenyl)-3-((8-((1-methyl-1H-pyrazol-4-yl)amino)imidazo[1,2-a]pyridin-3-yl)ethynyl)benzamide]
[1]
  remaining binding at 1 µM: 100%
[2]
  remaining binding at 1 µM: 0%
[3]
  remaining binding at 1 µM: 84%
[4]
  remaining binding at 1 µM: 100%
[5]
  remaining binding at 1 µM: 79%
[6]
  remaining binding at 1 µM: 81%
[7]
  remaining binding at 1 µM: 75%
[8]
  remaining binding at 1 µM: 88%
[9]
  remaining binding at 1 µM: 100%

## Cc1ccc(NC(=O)C2(C(=O)Nc3ccc(F)cc3)CC2)cc1C#Cc1cnc2c(Nc3cnn(C(C)C)c3)cccn12 [Example 78]
[1]
  remaining binding at 1 µM: 100%
[2]
  remaining binding at 1 µM: 0%
[3]
  remaining binding at 1 µM: 100%
[4]
  remaining binding at 1 µM: 96%
[5]
  remaining binding at 1 µM: 92%
[6]
  remaining binding at 1 µM: 92%
[7]
  remaining binding at 1 µM: 100%
[8]
  remaining binding at 1 µM: 100%
[9]
  remaining binding at 1 µM: 100%
